PubChem BioAssay AID2060890 (Molecular Pharmacology Branch, DTP, NCI, 2025)

Test system: LG0703-F948-PDC complex spheroid viability
Test: Anticancer human tumor LG0703-F948-PDC patient-derived lung adenocarcinoma cell line growth inhibition [RAS]
Conditions: for IC50: curve of first compound; for viability, T/C: stronger effect = lower value; active means viability on the fitted dose curve at most 10% of control; inactive means the rest
In short: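 Agents were tested in combination matrices in half-log decrements from a top concentration at or near clinical Cmax (10 microM if undetermined). Targets were multi-cell spheroids of tumour lines plus HUVEC and MSC stromal cells.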

[1] = second compound 0.0316 µM, first compound 0.0316 µM
[2] = second compound 0.0316 µM, first compound 0.1 µM
[3] = second compound 0.0316 µM, first compound 0.316 µM
[4] = second compound 0.0316 µM, first compound 1 µM
[5] = second compound 0.1 µM, first compound 0.0316 µM
[6] = second compound 0.1 µM, first compound 0.1 µM
[7] = second compound 0.1 µM, first compound 0.316 µM
[8] = second compound 0.1 µM, first compound 1 µM
[9] = second compound 0.316 µM, first compound 0.0316 µM
[10] = second compound 0.316 µM, first compound 0.1 µM
[11] = second compound 0.316 µM, first compound 0.316 µM
[12] = second compound 0.316 µM, first compound 1 µM
[13] = second compound 1 µM, first compound 0.0316 µM
[14] = second compound 1 µM, first compound 0.1 µM
[15] = second compound 1 µM, first compound 0.316 µM
[16] = second compound 1 µM, first compound 1 µM
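Further: spheroids exposed to agents for 7 days.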
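Wherever viability, T/C is given: 100% = DMSO vehicle wells.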

CC(C)NCC(C(=O)N1CCN(c2ncnc3c2C(C)CC3O)CC1)c1ccc(Cl)cc1 (stereo unspecified) + C#Cc1c(F)ccc2cc(O)cc(-c3ncc4c(N5CC6CCC(C5)N6)nc(OCC56CCCN5CC(F)C6)nc4c3F)c12
601 nM: IC50 (second compound 0.0316 µM)
238 nM: IC50 (second compound 0.316 µM)
< 31.6 nM: IC50 (second compound 10 µM)
257 nM: IC50 (second compound 1 µM)
active: viability, T/C (second compound 3.16 µM, first compound 10 µM) 7.15% | viability, T/C (second compound 10 µM, first compound 3.16 µM) 3.2% | viability, T/C (second compound 10 µM, first compound 10 µM) 0.42%
59.4 nM: IC50 (second compound 3.16 µM)
inactive: viability, T/C [1] 90% | viability, T/C [2] 67.3% | viability, T/C [3] 59.7% | viability, T/C [4] 46.4% | viability, T/C (second compound 0.0316 µM, first compound 3.16 µM) 29.8% | viability, T/C (second compound 0.0316 µM, first compound 10 µM) 26.1% | viability, T/C [5] 86.1% | viability, T/C [6] 68.2% | viability, T/C [7] 64.5% | viability, T/C [8] 40.5% | viability, T/C (second compound 0.1 µM, first compound 3.16 µM) 37.5% | viability, T/C (second compound 0.1 µM, first compound 10 µM) 22.9% | viability, T/C [9] 82.5% | viability, T/C [10] 60% | viability, T/C [11] 44.5% | viability, T/C [12] 35% | viability, T/C (second compound 0.316 µM, first compound 3.16 µM) 31.1% | viability, T/C (second compound 0.316 µM, first compound 10 µM) 15.8% | viability, T/C [13] 68.6% | viability, T/C [14] 63.6% | viability, T/C [15] 47.5% | viability, T/C [16] 25.6% | viability, T/C (second compound 1 µM, first compound 3.16 µM) 20.4% | viability, T/C (second compound 1 µM, first compound 10 µM) 10.2% | viability, T/C (second compound 3.16 µM, first compound 0.0316 µM) 57.6% | viability, T/C (second compound 3.16 µM, first compound 0.1 µM) 43.4% | viability, T/C (second compound 3.16 µM, first compound 0.316 µM) 32.9% | viability, T/C (second compound 3.16 µM, first compound 1 µM) 17.8% | viability, T/C (second compound 3.16 µM, first compound 3.16 µM) 11.7% | viability, T/C (second compound 10 µM, first compound 0.0316 µM) 34% | viability, T/C (second compound 10 µM, first compound 0.1 µM) 33.9% | viability, T/C (second compound 10 µM, first compound 0.316 µM) 17.9% | viability, T/C (second compound 10 µM, first compound 1 µM) 8.97%
699 nM: IC50 (second compound 0.1 µM)

C=CC(=O)Nc1cc(Nc2nccc(-c3cn(C)c4ccccc34)n2)c(OC)cc1N(C)CCN(C)C + C=CC(=O)N1CCN(c2nc(OCC3CCCN3C)nc3c(F)c(-c4nc(N)cc(C)c4C(F)(F)F)c(Cl)cc23)C(C)C1
8.3 nM: IC50 (second compound 1 µM)
7.93 nM: IC50 (second compound 0.316 µM)
7.32 nM: IC50 (second compound 0.00316 µM)
active: viability, T/C (second compound 0.01 µM, first compound 0.1 µM) 9.65% | viability, T/C (second compound 0.01 µM, first compound 0.316 µM) 8.46% | viability, T/C (second compound 0.01 µM, first compound 1 µM) 7.04% | viability, T/C [2] 10.3% | viability, T/C [3] 10.2% | viability, T/C [4] 6.08% | viability, T/C [6] 10.8% | viability, T/C [7] 9.54% | viability, T/C [8] 6.22% | viability, T/C [10] 9.84% | viability, T/C [11] 9.21% | viability, T/C [12] 6.05% | viability, T/C [14] 10.2% | viability, T/C [15] 9.74% | viability, T/C [16] 5.04%
inactive: viability, T/C (second compound 0.00316 µM, first compound 0.00316 µM) 75.2% | viability, T/C (second compound 0.00316 µM, first compound 0.01 µM) 40.8% | viability, T/C (second compound 0.00316 µM, first compound 0.0316 µM) 16.2% | viability, T/C (second compound 0.00316 µM, first compound 0.1 µM) 14.6% | viability, T/C (second compound 0.00316 µM, first compound 0.316 µM) 10.9% | viability, T/C (second compound 0.00316 µM, first compound 1 µM) 8.91% | viability, T/C (second compound 0.01 µM, first compound 0.00316 µM) 79.8% | viability, T/C (second compound 0.01 µM, first compound 0.01 µM) 42.7% | viability, T/C (second compound 0.01 µM, first compound 0.0316 µM) 16.9% | viability, T/C (second compound 0.0316 µM, first compound 0.00316 µM) 79.7% | viability, T/C (second compound 0.0316 µM, first compound 0.01 µM) 45% | viability, T/C [1] 16.2% | viability, T/C (second compound 0.1 µM, first compound 0.00316 µM) 86.3% | viability, T/C (second compound 0.1 µM, first compound 0.01 µM) 43% | viability, T/C [5] 14.8% | viability, T/C (second compound 0.316 µM, first compound 0.00316 µM) 79.2% | viability, T/C (second compound 0.316 µM, first compound 0.01 µM) 42.7% | viability, T/C [9] 17.4% | viability, T/C (second compound 1 µM, first compound 0.00316 µM) 79.5% | viability, T/C (second compound 1 µM, first compound 0.01 µM) 44.5% | viability, T/C [13] 15.7%
7.97 nM: IC50 (second compound 0.01 µM)
8.46 nM: IC50 (second compound 0.0316 µM)
8.29 nM: IC50 (second compound 0.1 µM)

CCc1c2c(nc3ccc(O)cc13)-c1cc3c(c(=O)n1C2)COC(=O)[C@]3(O)CC + CCn1c(-c2cccnc2C(C)OC)c2c3cc(ccc31)N1CCOC(CC(NC(=O)C(C(C)C)N(C)C(=O)C3(F)CCN(C(=O)C#CC(C)(C)N(C)C)CC3)C(=O)N3CCCC(N3)C(=O)OCC(C)(C)C2)C1
83.9 nM: IC50 (second compound 0.000949 µM)
19.9 nM: IC50 (second compound 0.0949 µM)
63.7 nM: IC50 (second compound 0.00949 µM)
51.8 nM: IC50 (second compound 0.03 µM)
77 nM: IC50 (second compound 0.003 µM)
< 0.949 nM: IC50 (second compound 0.3 µM)
inactive: viability, T/C (second compound 0.000949 µM, first compound 0.000949 µM) 123% | viability, T/C (second compound 0.000949 µM, first compound 0.003 µM) 86.9% | viability, T/C (second compound 0.000949 µM, first compound 0.00949 µM) 103% | viability, T/C (second compound 0.000949 µM, first compound 0.03 µM) 66% | viability, T/C (second compound 0.000949 µM, first compound 0.0949 µM) 43.3% | viability, T/C (second compound 0.000949 µM, first compound 0.3 µM) 30.6% | viability, T/C (second compound 0.003 µM, first compound 0.000949 µM) 130% | viability, T/C (second compound 0.003 µM, first compound 0.003 µM) 102% | viability, T/C (second compound 0.003 µM, first compound 0.00949 µM) 103% | viability, T/C (second compound 0.003 µM, first compound 0.03 µM) 60.5% | viability, T/C (second compound 0.003 µM, first compound 0.0949 µM) 48.1% | viability, T/C (second compound 0.003 µM, first compound 0.3 µM) 30.3% | viability, T/C (second compound 0.00949 µM, first compound 0.000949 µM) 111% | viability, T/C (second compound 0.00949 µM, first compound 0.003 µM) 103% | viability, T/C (second compound 0.00949 µM, first compound 0.00949 µM) 104% | viability, T/C (second compound 0.00949 µM, first compound 0.03 µM) 62.4% | viability, T/C (second compound 0.00949 µM, first compound 0.0949 µM) 46.8% | viability, T/C (second compound 0.00949 µM, first compound 0.3 µM) 26% | viability, T/C (second compound 0.03 µM, first compound 0.000949 µM) 113% | viability, T/C (second compound 0.03 µM, first compound 0.003 µM) 93.9% | viability, T/C (second compound 0.03 µM, first compound 0.00949 µM) 87.5% | viability, T/C (second compound 0.03 µM, first compound 0.03 µM) 56% | viability, T/C (second compound 0.03 µM, first compound 0.0949 µM) 40.4% | viability, T/C (second compound 0.03 µM, first compound 0.3 µM) 27.4% | viability, T/C (second compound 0.0949 µM, first compound 0.000949 µM) 85.7% | viability, T/C (second compound 0.0949 µM, first compound 0.003 µM) 91.2% | viability, T/C (second compound 0.0949 µM, first compound 0.00949 µM) 63.3% | viability, T/C (second compound 0.0949 µM, first compound 0.03 µM) 42.7% | viability, T/C (second compound 0.0949 µM, first compound 0.0949 µM) 27.1% | viability, T/C (second compound 0.0949 µM, first compound 0.3 µM) 22.9% | viability, T/C (second compound 0.3 µM, first compound 0.000949 µM) 44% | viability, T/C (second compound 0.3 µM, first compound 0.003 µM) 49.9% | viability, T/C (second compound 0.3 µM, first compound 0.00949 µM) 46.3% | viability, T/C (second compound 0.3 µM, first compound 0.03 µM) 25.8% | viability, T/C (second compound 0.3 µM, first compound 0.0949 µM) 19.2% | viability, T/C (second compound 0.3 µM, first compound 0.3 µM) 14.1%
